Results taken from patent US20230080054A1 (ILDONG PHARMACEUTICAL CO., LTD., priority 2021, published 2023).

Key:
human ANO6 [1] = target: T1, human ANO6 (Homo sapiens, UniProt Q4KMQ2); test: YFP quenching assay (ANO6 ion channel activity); assay type: cell-based; settings: 10 μM ionomycin; for inhibition at 1 µM: test compound 1 μM, read-out: Inhibition Level 1 μM; for inhibition at 30 µM: test compound 30 μM, read-out: Inhibition Level 30 μM
T1 construct: expressed in transfected cells
T1 sequence (Q4KMQ2 1-931 isoform Q4KMQ2-2): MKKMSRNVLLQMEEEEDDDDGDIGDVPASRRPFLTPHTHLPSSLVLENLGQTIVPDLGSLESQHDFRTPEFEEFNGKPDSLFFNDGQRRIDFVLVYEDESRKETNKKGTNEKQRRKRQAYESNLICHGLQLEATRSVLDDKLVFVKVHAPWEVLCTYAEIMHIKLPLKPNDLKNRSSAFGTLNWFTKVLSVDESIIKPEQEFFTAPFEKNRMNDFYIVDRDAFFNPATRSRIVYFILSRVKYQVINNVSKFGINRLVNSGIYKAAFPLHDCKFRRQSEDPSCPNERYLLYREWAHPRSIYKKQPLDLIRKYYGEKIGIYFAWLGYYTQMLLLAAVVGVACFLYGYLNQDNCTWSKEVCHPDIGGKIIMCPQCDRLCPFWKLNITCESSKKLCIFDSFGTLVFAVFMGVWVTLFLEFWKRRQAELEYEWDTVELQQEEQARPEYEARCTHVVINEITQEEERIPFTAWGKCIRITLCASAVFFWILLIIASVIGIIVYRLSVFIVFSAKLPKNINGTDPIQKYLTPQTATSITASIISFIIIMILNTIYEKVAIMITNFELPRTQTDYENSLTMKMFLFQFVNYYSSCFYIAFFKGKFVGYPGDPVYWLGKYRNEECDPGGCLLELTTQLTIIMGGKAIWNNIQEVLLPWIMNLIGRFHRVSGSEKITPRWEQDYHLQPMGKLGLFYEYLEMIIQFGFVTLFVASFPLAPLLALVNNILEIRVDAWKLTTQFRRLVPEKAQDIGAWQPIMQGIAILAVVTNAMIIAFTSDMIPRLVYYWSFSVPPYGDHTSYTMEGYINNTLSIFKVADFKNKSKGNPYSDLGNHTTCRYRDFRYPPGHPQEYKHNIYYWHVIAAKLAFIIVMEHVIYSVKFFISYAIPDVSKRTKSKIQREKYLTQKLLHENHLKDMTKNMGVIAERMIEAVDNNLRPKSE
Method in brief: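 FRT cells stably expressing human ANO6 and YFP-H148Q/I152L/F46L, preincubated 10 min at 40° C with compounds (1% DMSO) in PBS. Quench read every 0.4 s after injecting 140 mM SCN- with 10 μM ionomycin; % inhibition from the 3.6–7.6 s fluorescence difference, normalised to no-ionomycin (100%) and ionomycin-only (0%) wells, duplicate or triplicate.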

human ANO6 [2] = target: T1, human ANO6; test: LACT C2 assay (phosphatidylserine scramblase function assay); assay type: cell-based; settings: FRT cells expressing human ANO6, 10 μM ionomycin; for inhibition at 1 µM: test compound 1 μM, read-out: Inhibition Level 1 μM; for inhibition at 0.1 µM: test compound 100 nM, read-out: Inhibition Level 100 nM
Method in brief: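 FRT cells stably expressing human ANO6 were pretreated with compound (1% DMSO) for 10 min, then stimulated with 10 μM ionomycin for 10 min. Surface phosphatidylserine was stained with 500 nM Lact-C2-GFP and quantified by imaging. Inhibition was scaled between unstimulated (100%) and ionomycin-only (0%) controls, averaged over triplicates.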

Structure (SMILES)	inhibition at 1 µM (human ANO6 [1]) [%]	inhibition at 30 µM (human ANO6 [1]) [%]	inhibition at 1 µM (human ANO6 [2]) [%]	inhibition at 0.1 µM (human ANO6 [2]) [%]
Cc1ccc(CNC(=O)c2cccc(Nc3ncc(-c4ccccc4)cn3)c2)o1 [Compound 2, N-[(5-methylfuran-2-yl)methyl]-3-[(5-phenylpyrimidin-2-yl)amino]benzamide]	30 to 60	≥ 60	≥ 60	< 30
Cc1ccc(CNC(=O)c2cccc(Nc3ccc(-c4ccccc4)cc3)c2)o1 [Compound 3, 3-({[1,1′-biphenyl]-4-yl}amino)-N-[(5-methylfuran-2-yl)methyl]benzamide]	≥ 60	≥ 60	≥ 60	< 30
Cc1ccc(CNC(=O)c2cccc(Nc3ccc(-c4ccccc4)cn3)c2)o1 [Compound 4, N-[(5-methylfuran-2-yl)methyl]-3-[(5-phenylpyridin-2-yl)amino]benzamide]	≥ 60	≥ 60	≥ 60	< 30
COc1cccc(CNC(=O)c2cccc(Nc3ccc(-c4ccc(F)cc4)nn3)c2)c1 [Compound A29]	30 to 60	≥ 60	–	–
Cc1ccc(-c2ccc(Nc3cccc(C(=O)NCc4ccc(Br)cc4)c3)nn2)cc1 [Compound A30]	–	< 30	–	–
CCN(CC)CCCNC(=O)c1cccc(Nc2ccc(-c3ccccc3)nn2)c1 [Compound A59]	< 30	30 to 60	–	–
COc1ccc(OC)c(CNC(=O)c2cccc(Nc3ccc(-c4ccccc4)nn3)c2)c1 [Compound A60]	30 to 60	≥ 60	–	–
COc1ccc(CNC(=O)c2cccc(Nc3ccc(-c4ccccc4)nn3)c2)c(OC)c1 [Compound A61]	30 to 60	≥ 60	–	–
COCCCNC(=O)c1cccc(Nc2ccc(-c3ccccc3)nn2)c1 [Compound A69]	30 to 60	≥ 60	–	–
COc1ccccc1NC(=O)c1cccc(Nc2ccc(-c3ccccc3)nn2)c1 [Compound A71]	–	30 to 60	–	–
COc1cccc(C(C)NC(=O)c2cccc(Nc3ccc(-c4ccccc4)nn3)c2)c1 (stereo not shown) [Compound A79]	30 to 60	≥ 60	–	–
O=C(NC1CCCc2ccccc21)c1cccc(Nc2ncc(-c3cccc(F)c3)cn2)c1 (stereo not shown) [Compound A82]	30 to 60	–	–	–
O=C(NCC1CCCO1)c1cccc(Nc2ncc(-c3cccc(F)c3)cn2)c1 (stereo not shown) [Compound A83]	30 to 60	–	–	–
O=C(NCCN1CCCCC1)c1cccc(Nc2ccc(-c3ccccc3)nn2)c1 [Compound A90]	< 30	–	–	–

Second part, the compound after the results:

inhibition at 1 µM (human ANO6 [1]) [%]	inhibition at 30 µM (human ANO6 [1]) [%]	inhibition at 1 µM (human ANO6 [2]) [%]	inhibition at 0.1 µM (human ANO6 [2]) [%]	Structure (SMILES)
30 to 60	≥ 60	≥ 60	–	Cc1ccc(CNC(=O)c2cccc(Nc3cnc(-c4ccccc4)cn3)c2)o1 [Compound 1, N-[(5-methylfuran-2-yl)methyl]-3-[(5-phenylpyrazin-2-yl)amino]benzamide]
30 to 60	≥ 60	–	–	Cc1ccc(-c2ccc(Nc3cccc(C(=O)NC(C)C)c3)nn2)cc1 [Compound A31]
30 to 60	≥ 60	–	–	Cc1ccc(-c2ccc(Nc3cccc(C(=O)NCC(C)C)c3)nn2)cc1 [Compound A33]
30 to 60	≥ 60	–	–	CCN(CCCNC(=O)c1cccc(Nc2ccc(-c3ccccc3)nn2)c1)Cc1ccccc1 [Compound A42]
30 to 60	≥ 60	–	–	O=C(NC1CCCc2ccccc21)c1cccc(Nc2ccc(-c3ccccc3)nn2)c1 (stereo not shown) [Compound A56]
30 to 60	–	–	–	CCN(CC)c1ccc(CNC(=O)c2cccc(Nc3ncc(-c4cccc(F)c4)cn3)c2)cc1 [Compound A81]
–	30 to 60	–	–	NC(=O)c1ccc(Nc2ccc(-c3ccccc3)nn2)cc1 [Compound A86]
30 to 60	–	–	–	O=C(NCCc1ccccc1)c1cccc(Nc2ncc(-c3cccc(F)c3)cn2)c1 [Compound A88]
